Consider 2 molecules from patent publication US11117904B2, “Compositions and methods for the delivery of therapeutics” (ViiV Healthcare Company, priority 2016, dated 2021).

SMILES strings stand for the structures.

Data set [1] in a line: Nanoparticle characterization by dynamic light scattering. It counts as physicochemical. Conditions: upon derivatization of native drug into prodrug. The procedure:
Nanoformulations were characterized for particle size, polydispersity index (PDI) and zeta potential by dynamic light scattering (FIG. 1). This was done using a Malvern Zetasizer, Nano Series Nano-ZS (Malvern Instruments Inc., Westborough, Mass.). Nanoparticle morphology was determined by scanning electron microscopy (SEM). Ultra performance liquid chromatography tandem mass-spectrometry (UPLC MS/MS) was used for drug quantitation. […] Further, the improved hydrophobicity of MDTG facilitated production of stable formulations with high drug loading capacity. Nanoformulations were characterized for particle size, polydispersity index (PDI) and zeta potential by dynamic light scattering (DLS) (Table 1). This was done using a Malvern Zetasizer, Nano Series Nano-ZS (Malvern Instruments Inc, Westborough, Mass.). Nanoparticle morphology was determined by scanning electron microscopy (SEM). UPLC MS/MS was used for drug quantitation. […] The improved hydrophobicity of MCAB facilitated production of stable formulations with high drug loading capacity.

Data set [2] deals with human monocyte derived macrophages (MDM). The data set can be described thus: Uptake and retention of drug in human monocyte derived macrophages (HPLC). It counts as cell-based. As for the experimental part: Human monocytes were cultured in macrophage colony stimulating factor containing cell culture medium for 7-10 days in order to differentiate into macrophages (Balkundi et al. (2011) Intl. J. Nanomed., 6:3393-3404; Nowacek et al. (2009) Nanomed., 4(8):903-917). The macrophages were incubated with a range of formulations and native drugs. At each time point, adherent MDM were washed three times with 1 mL of PBS, scraped into 1 mL of fresh PBS and pelleted by centrifugation at 950×g for 8 minutes. The cell pellet was reconstituted in 200 μl of high performance liquid chromatography (HPLC)-grade methanol and probe sonicated followed by centrifugation at 20,000×g for 20 minutes. The supernatant was analyzed for drug content using HPLC (FIG. 2A and FIG. 2B). […] Human monocytes were cultured in macrophage colony stimulating factor containing cell culture medium for 7-10 days in order to differentiate into macrophages (Balkundi et al. (2011) Intl. J. Nanomed., 6:3393-3404; Nowacek et al. (2009) Nanomed., 4(8):903-917). The macrophages were incubated with a range of formulations and native drugs. At each time point, adherent monocyte-derived macrophage (MDM) were washed three times with 1 mL of PBS, scraped into 1 mL of fresh PBS and pelleted by centrifugation at 950×g for 8 minutes. […] The supernatant was analyzed for drug content using HPLC (FIGS. 4A and 4B). […]

For data set [3], the system named is HIV-1ADA. In words: Antiretroviral activity in MDM challenged with HIV-1ADA (RT activity, HIV-1 p24 staining). It counts as cell-based. Conditions: MDM treated with 100 μM for 8 hours, challenged with HIV-1ADA at MOI 0.01; RT activity and p24. The procedure:
MDM were treated with either 100 μM DTG, MDTG, P407-MDTG or FA-P407-MDTG for 8 hours. The cells were washed with PBS to remove excess of free drug and nanoparticles. The MDM were challenged with HIV-1ADA at a MOI of 0.01 infectious viral particles/cell for 18 hours on day 1, 5, 10 and 15. Progeny virion production was measured by reverse transcriptase (RT) activity in culture medium (Kalter et al. (1992) J. Clin. Microbiol., 30(4):993-995) (FIG. 2C). HIV-1 p24 protein antigen expression was assessed (Guo et al. (2014) J. Virol., 88(17):9504-9513). The MDM were washed with PBS and fixed with 4% paraformaldehyde for 15 minutes at room temperature. The cells were blocked using 10% BSA containing 1% Triton X-100 in PBS for 30 minutes at room temperature. Following blocking, cells were incubated with HIV-1 p24 mouse monoclonal antibodies (1:50; Dako, Carpinteria, Calif., USA) for overnight at 4° C., followed by 1 hour incubation at room temperature. […]
MDM were treated with either 100 μM CAB long acting parenteral (CAB-LAP), P407-CAB, P407-MCAB or FA-P407-MCAB for 8 hours. […] Progeny virion production was measured by reverse transcription (RT) activity in culture medium (Kalter et al. (1992) J. Clin. Microbiol., 30(4):993-995). HIV-1 p24 protein antigen expression was assessed (Guo et al. (2014) J. Virol., 88(17):9504-9513) (FIG. 4C). […]

Regarding `CCCCCCCCCCCCCC(=O)Oc1c2n(cc(C(=O)NCc3ccc(F)cc3F)c1=O)C[C@@H]1OCC[C@@H](C)N1C2=O` [MDTG], the hydrophobicity result in data set [1] is reported as “greatly improved”. Further, in data set [2] (cellular retention in MDM), the MDM retention result is listed as “significant enhancements”. For the same molecule, the antiretroviral efficacy result in data set [3] is listed as “significant enhancements”.
On to `CCCCCCCCCCCCCC(=O)Oc1c2n(cc(C(=O)NCc3ccc(F)cc3F)c1=O)CC1OCC(C)N1C2=O` (centres unmarked) [MCAB], for which, in data set [1], the hydrophobicity entry is listed as “greatly improved”. The “intracellular accumulation of the drug” value in data set [2] (MDM, compared to CAB-LAP) is reported as “significantly improved”.
